Where two headings read alike, the source gives them in different places. Ends that are not written are not given here.
What was measured:
[1] = tested on: GtHα mRNA in grass carp pituitary cells; assay: Signal transduction: GtHα mRNA expression with inhibitors in pituitary cells; type: cell-based
[2] = tested on: grass carp pituitary cells; assay: Signal transduction: LH release with inhibitors in pituitary cells; type: cell-based
[3] = tested on: LHβ mRNA in grass carp pituitary cells; assay: Signal transduction: LHβ mRNA expression with inhibitors in pituitary cells; type: cell-based
[4] = tested on: PrRPs, GnRH2 and GnRH3 mRNA in grass carp brain cells; assay: PrRPs and GnRH mRNA expression in primary brain cells; type: cell-based; conditions: E2 1 μM, 24 h
Method: (§1) In brief, 13-14 grass carp brains were obtained and separated into the required brain areas including telencephalon, hypothalamus, and optic tectum, which were cut into 0.8 mm tissue fragments using […] tissue chopper (Cavey laboratory). After washing with Minimum Essential Medium (MEM, Gibco) three times, the brain fragments were incubated with 6 mg/ml trypsin (Sigma) dissolved in the medium under the conditions of 28°C, 48 rpm for 30 min. […] The brain fragments were filtered using a 30 μm filter screen and cultured into a 24-well cell culture plate under 28°C, 5% CO2 concentration. […] After another 2 days of incubation, a single-dose E2 treatment (1 μM) was performed on the cells. […] The β-actin mRNA was used as an internal parameter to eliminate random error. Therefore, genes mRNA data as well as LH release data were easily converted as a percentage of the mean value (as “% Ctrl”). The data presented (as Mean ± SEM) collected results from 4-8 parallel group experiments and analyzed with ANOVA.

prepubertal zebrafish = tested on: prepubertal zebrafish; set-up: method as in PMID 22689988; conditions: cited from earlier work
[5] = tested on: PrRP-Rs mRNA in grass carp brain cells; assay: PrRP-Rs mRNA expression in primary brain cells; type: cell-based; conditions: E2 1 μM, 24 h
Method: as §1

PrRP-R1b = target: T1, PrRP-R1b (Ctenopharyngodon idella, UniProt A0A4P9NKE2); assay: cell-based; set-up: species or system grass carp (Ctenopharyngodon idellus)
T1 sequence (A0A4P9NKE2 1-377): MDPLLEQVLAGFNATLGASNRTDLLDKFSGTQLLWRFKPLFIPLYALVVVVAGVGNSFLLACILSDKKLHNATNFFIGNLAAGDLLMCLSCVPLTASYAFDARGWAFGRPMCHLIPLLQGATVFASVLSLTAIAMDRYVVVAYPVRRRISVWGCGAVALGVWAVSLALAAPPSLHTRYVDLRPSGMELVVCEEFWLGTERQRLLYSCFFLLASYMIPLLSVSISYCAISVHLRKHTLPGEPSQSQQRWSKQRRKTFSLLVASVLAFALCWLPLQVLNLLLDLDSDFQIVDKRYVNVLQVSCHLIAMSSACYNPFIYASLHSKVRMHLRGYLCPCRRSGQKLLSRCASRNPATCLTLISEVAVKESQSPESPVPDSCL

PrRP-R2a = target: T2, PrRP-R2a (Ctenopharyngodon idella, UniProt A0A4V1HW94); assay: cell-based; set-up: species or system grass carp (Ctenopharyngodon idellus)
T2 sequence (A0A4V1HW94 1-370): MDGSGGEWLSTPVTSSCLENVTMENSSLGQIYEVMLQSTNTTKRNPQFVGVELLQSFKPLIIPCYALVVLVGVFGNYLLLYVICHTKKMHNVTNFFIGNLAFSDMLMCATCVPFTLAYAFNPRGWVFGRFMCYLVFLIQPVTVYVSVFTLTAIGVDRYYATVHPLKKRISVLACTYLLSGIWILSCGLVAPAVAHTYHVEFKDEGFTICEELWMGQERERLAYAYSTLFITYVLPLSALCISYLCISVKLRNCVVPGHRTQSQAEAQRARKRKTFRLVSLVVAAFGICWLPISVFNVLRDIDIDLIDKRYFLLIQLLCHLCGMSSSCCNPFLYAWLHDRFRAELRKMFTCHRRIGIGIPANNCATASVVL

hPrRPR = target: T3, hPrRPR (Homo sapiens, UniProt P49683); assay: NFAT-luc reporter assay, functional expression of hPrRPR in HEK-293T cells; type: cell-based
T3 construct: the full-length open reading frame (ORF) of human PrRP receptor (hPrRPR); expressed in transfected cells; host or cells: HEK-293T
T3 sequence (P49683 1-370): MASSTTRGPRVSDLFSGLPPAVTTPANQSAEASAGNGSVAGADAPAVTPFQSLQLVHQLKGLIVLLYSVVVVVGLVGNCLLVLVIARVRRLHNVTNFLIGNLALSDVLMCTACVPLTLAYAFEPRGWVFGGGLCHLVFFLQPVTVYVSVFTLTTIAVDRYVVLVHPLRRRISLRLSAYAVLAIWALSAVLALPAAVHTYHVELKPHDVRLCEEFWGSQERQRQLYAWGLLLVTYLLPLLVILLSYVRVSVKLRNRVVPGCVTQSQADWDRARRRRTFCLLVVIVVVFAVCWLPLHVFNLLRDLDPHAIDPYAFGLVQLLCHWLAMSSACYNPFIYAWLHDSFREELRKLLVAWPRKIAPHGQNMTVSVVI

PrRP-R1a = target: T4, PrRP-R1a (Ctenopharyngodon idella, UniProt A0A4P9NKE7); assay: cell-based; set-up: species or system grass carp (Ctenopharyngodon idellus)
T4 sequence (A0A4P9NKE7 1-371): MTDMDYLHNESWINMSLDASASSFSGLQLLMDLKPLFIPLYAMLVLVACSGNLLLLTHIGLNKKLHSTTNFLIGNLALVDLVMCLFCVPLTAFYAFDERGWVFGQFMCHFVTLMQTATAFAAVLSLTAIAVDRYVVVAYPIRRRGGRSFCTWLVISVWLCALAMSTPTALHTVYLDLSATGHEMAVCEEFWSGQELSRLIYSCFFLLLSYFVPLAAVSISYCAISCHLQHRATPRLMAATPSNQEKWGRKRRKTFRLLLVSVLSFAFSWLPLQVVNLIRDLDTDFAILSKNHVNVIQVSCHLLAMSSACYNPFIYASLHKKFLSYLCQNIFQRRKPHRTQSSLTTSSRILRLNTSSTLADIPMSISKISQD

[6] = sheet prrp1, block PKA, PrRP1 1 μM, MDL12330A 20 μM, H89 20 μM, 24 h, mean
[7] = sheet prrp2, block r2-8, PrRP2 1 μM, MDL12330A 20 μM, H89 20 μM, 24 h, mean
[8] = PrRP1 or PrRP2 1 μM, MDL12330A 20 μM, H89 20 μM, U73122 10 μM, GF109203X 20 μM, 2-APB 100 μM, nifedipine 10 μM, calmidazolium 1 μM, KN62 5 μM
[9] = sheet prrp1, block r21-32, PrRP1 1 μM, U73122 10 μM, 2-APB 100 μM, KN62 5 μM, nifedipine 10 μM, calmidazolium 1 μM, 24 h, mean
[10] = sheet prrp2, block r25-30, PrRP2 1 μM, CMZ 1 μM, KN62 5 μM, 24 h, mean
[11] = sheet prrp1, block Nifedipine, CMZ, KN62 (r33-40), PrRP1 1 μM, nifedipine 10 μM, calmidazolium 1 μM, KN62 5 μM, 24 h, mean
[12] = sheet prrp1, block r21-30, PrRP1 1 μM, U73122 10 μM, 2-APB 100 μM, KN62 5 μM, nifedipine 10 μM, 24 h, mean
[13] = sheet prrp2, block r27-32, PrRP2 1 μM, CMZ 1 μM, KN62 5 μM, 24 h, mean
[14] = sheet prrp1, block PKC (r14-19), PrRP1 1 μM, U73122 10 μM, GF109203X 20 μM, 24 h, mean
[15] = sheet prrp2, block r10-15, PrRP2 1 μM, U73122 10 μM, GF109203X 20 μM, 24 h, mean
[16] = HEK-293T, NFAT-luc reporter, 24 h, 37°C, GraphPad Prism 7, read-out: EC50, hPrRPR

## NCCOB(c1ccccc1)c1ccccc1 [2-APB]
[1]
  GtHα mRNA expression: 30.7224 % Ctrl
[2]
  effect on PrRPs-induced LH secretion and mRNA expression (in words): could also block PrRPs-induced LH secretion and mRNA expression
[3]
  LHβ mRNA expression: 7.49 % Ctrl

## C[C@]12CC[C@@H]3c4ccc(O)cc4CC[C@H]3[C@@H]1CC[C@@H]2O [E2, seventeen β-estradiol]
[4]
  GnRH3 mRNA expression (in words): significantly induce
  PrRP1 mRNA expression (in words): significantly induce
[4]; mean
  gnrh3 mRNA expression (CTR = 1): 2.33
  prrp1 mRNA expression (CTR = 1): 1.32
Prepubertal zebrafish
  expression of key genes involved in reproduction (GnRH3, Kiss2, and Tac3) (in words): enhanced the expression of the key genes involved in reproduction
[5]
  four PrRP-Rs mRNA expression (in words): significantly induced
[5]; mean
  prrp1a mRNA expression (CTR = 1): 2.26
  prrp1b mRNA expression (CTR = 1): 2.14
  prrp2a mRNA expression (CTR = 1): 1.37
  prrp2b mRNA expression (CTR = 1): 2.25

## CN(C)CCCn1cc(C2=C(c3c[nH]c4ccccc34)C(=O)NC2=O)c2ccccc21 [GF109203X]
[1]
  GtHα mRNA expression: 66.101 % Ctrl
[2]
  effect on PrRPs-induced LH secretion and mRNA expression (in words): could also block PrRPs-induced LH secretion and mRNA expression
[3]
  LHβ mRNA expression: 101.639 % Ctrl

## O=S(=O)(NCCNC/C=C/c1ccc(Br)cc1)c1cccc2cnccc12 [H89]
[1]; [6]
  GtHα mRNA expression: 38.3512 % Ctrl
[1]; [7]
  GtHα mRNA expression: 38.3512 % Ctrl
[2]; [8]
  effect on PrRPs-induced LH secretion and mRNA expression (in words): could be blocked by co-treatment
[3]; [6]
  LHβ mRNA expression: 92.1677 % Ctrl
[3]; [7]
  LHβ mRNA expression: 65.1638 % Ctrl

## CN([C@@H](Cc1ccc(OS(=O)(=O)c2cccc3cnccc23)cc1)C(=O)N1CCN(c2ccccc2)CC1)S(=O)(=O)c1cccc2cnccc12 [KN62]
[1]; [9]
  GtHα mRNA expression: 119.519 % Ctrl
[1]; [10]
  GtHα mRNA expression: 119.519 % Ctrl
[2]; [8]
  effect on PrRPs-induced LH secretion and mRNA expression (in words): could also block PrRPs-induced LH secretion and mRNA expression
[3]; [11]
  LHβ mRNA expression: 112.35 % Ctrl
[3]; [12]
  LHβ mRNA expression: 112.35 % Ctrl
[3]; [13]
  LHβ mRNA expression: 112.35 % Ctrl

## Cl.c1ccc(C2CCCC2NC2=NCCCCCCCCCCC2)cc1 (centres unmarked) [MDL12330A]
[1]; [6]
  GtHα mRNA expression: 33.647 % Ctrl
[1]; [7]
  GtHα mRNA expression: 33.647 % Ctrl
[2]; [8]
  effect on PrRPs-induced LH secretion and mRNA expression (in words): could be blocked by co-treatment
[3]; [6]
  LHβ mRNA expression: 19.5731 % Ctrl
[3]; [7]
  LHβ mRNA expression: 52.4857 % Ctrl

## COc1ccc2c(c1)CC[C@@H]1[C@@H]2CC[C@]2(C)[C@@H](NCCCCCCN3C(=O)C=CC3=O)CC[C@@H]12 [U73122]
[1]; [14]
  GtHα mRNA expression: 19.2973 % Ctrl
[1]; [9]
  GtHα mRNA expression: 19.2973 % Ctrl
[1]; [15]
  GtHα mRNA expression: 19.2973 % Ctrl
[2]; [8]
  effect on PrRPs-induced LH secretion and mRNA expression (in words): could also block PrRPs-induced LH secretion and mRNA expression
[3]; [14]
  LHβ mRNA expression: 16.4413 % Ctrl
[3]; [12]
  LHβ mRNA expression: 16.4413 % Ctrl
[3]; [15]
  LHβ mRNA expression: 16.4413 % Ctrl

## Clc1ccc(C(c2ccc(Cl)cc2)n2cc[n+](CC(OCc3ccc(Cl)cc3Cl)c3ccc(Cl)cc3Cl)c2)cc1 (centres unmarked) [calmidazolium]
[1]; [9]
  GtHα mRNA expression: 36.6785 % Ctrl
[1]; [10]
  GtHα mRNA expression: 48.844 % Ctrl
[2]; [8]
  effect on PrRPs-induced LH secretion and mRNA expression (in words): could also block PrRPs-induced LH secretion and mRNA expression
[3]; [11]
  LHβ mRNA expression: 13.098 % Ctrl
[3]; [13]
  LHβ mRNA expression: 13.098 % Ctrl

## COC(=O)C1=C(C)NC(C)=C(C(=O)OC)C1c1ccccc1[N+](=O)[O-] [nifedipine]
[1]; [9]
  GtHα mRNA expression: 77.477 % Ctrl
[1]; sheet prrp2, block r17-22, PrRP2 1 μM, 2-APB 100 μM, nifedipine 10 μM, 24 h, mean
  GtHα mRNA expression: 72.5728 % Ctrl
[2]; [8]
  effect on PrRPs-induced LH secretion and mRNA expression (in words): could also block PrRPs-induced LH secretion and mRNA expression
[3]; [11]
  LHβ mRNA expression: 48.7223 % Ctrl
[3]; [12]
  LHβ mRNA expression: 48.7223 % Ctrl
[3]; sheet prrp2, block r18-23, PrRP2 1 μM, 2-APB 100 μM, nifedipine 10 μM, 24 h, mean
  LHβ mRNA expression: 48.7223 % Ctrl

## DPNIDAVWYKGRGIRPVGRF-NH2 [PrRP2]
PrRP-R1b
  EC50: 0.615 µM
PrRP-R2a
  EC50: 0.0789 µM
hPrRPR; [16]
  EC50: 0.0524 µM
PrRP-R1a
  EC50: 3.16 µM

## SPEIDPFWYVGRGVRPIGRF-NH2 [PrRP1]
PrRP-R1b
  EC50: 0.192 µM
PrRP-R2a
  EC50: 0.72 µM
hPrRPR
  EC50: 0.182 µM
PrRP-R1a
  EC50: 0.0853 µM

## TPDINPAWYASRGIRPVGRF-NH2 [hPrRP]
PrRP-R1b
  EC50: 2.18 µM
PrRP-R2a
  EC50: 0.94 µM
hPrRPR; [16]
  EC50: 0.191 µM
PrRP-R1a
  EC50: 1.11 µM

From publication PMC8595397, “Reproductive Regulation of PrRPs in Teleost: The Link Between Feeding and Reproduction” (Frontiers in Endocrinology, 2021)
